Test results published in article PMC9486541, “Design, synthesis and cytotoxic evaluation of novel betulonic acid-diazine derivatives as potential antitumor agents” (Frontiers in Chemistry, 2022).
pIC50: −log10 of the molar value.

Experiments:
MDCK = assay: MTT assay, MDCK normal cell line; type: cell-based, canine
Excerpt: The human hepatocellular carcinoma cell line (HepG2), human hepatocellular carcinoma cell line (Bel-7402), human cervical cancer cell line (Hela), human breast adenocarcinoma cell line (MCF-7) and Madin-Darby canine kidney cell line (MDCK) were obtained from the Chinese Academy of Medical Sciences and Peking Union Medical College. Cultures were maintained as monolayer in RPMI-1640/DMEM supplemented with 10% (v/v) fetal bovine serum (FBS) and 1% (v/v) penicillin/streptomycin (Thermo Technologies, New York, NY, United States) under a humidified atmosphere containing 5% CO2 at 37°C. The BoA derivatives and positive control drugs (BoA and DDP) under study were dissolved in DMSO (Sigma, St. Louis, MO, United States) and added at required concentrations to the cell culture. Cells incubated without the preparations served as the control.
The antitumor activity was assessed by MTT assay, as previously reported ([Fang et al., 2018]). Each tested compound and positive control drugs were dissolved in DMSO and diluted with the medium to the test concentrations, and the final concentration of DMSO in the culture medium was controlled at less than 0.5% (v/v). Briefly, cells were cultured at 37°C and dispersed in replicates in 96-well plates with HepG2, Bel-7402, HeLa, MCF-7 and MDCK for 24 h. Fresh medium along with compounds (BoAA-BoAE, BoA2A-BoA2G, BoA3A-BoA3G, BoA4A-BoA4G) at different concentrations was then added to individual wells and incubated for 72 h, with BoA and DDP as the positive control. Experiments on FXR expression were separated into three groups: Control (PBS), BoA2C (8 μM), and BoA2C (8 μM) + DY268 (10 μM) ([Giordano et al., 2016]), with three repeating wells in each. In separate wells, BoA2C and DY268 were introduced and cultured for 72 h. After 72 h, the cell was incubated with MTT solution (0.5 mg/ml) for an additional 4 h at 37°C. The produced formazan crystals were solubilized with DMSO, and the optical density of solution was measured at 570 nm using a plate reader (BIORAD 550 spectrophotometer, Bio-rad Life Science Development Ltd., Beijing, China). Wells without drugs were used to be blanks. The IC50 values were defined as the concentration of compounds that produced a 50% proliferation inhibition of surviving cells and calculated using the Graph Pad Prism 5. The inhibitory rate was calculated in the following Equation 1, where OD is the optical density: % inhibition=[1−(OD Sample group−OD Blank group)/(OD Control group−OD Blank group)]×100% (1)

MCF-7 cells = assay: Cellular metabolomics study (LC-MS); type: cell-based, human; details: MCF-7, BoA2C (2 μM) 72 h, BoA2C and Control groups
Protocol: To eliminate excess medium, cells were washed twice with 1 ml of PBS solution. The wells were then filled with 2 ml of ACN: MeOH: H2O 50:30:20 (v/v) and placed in the freezer for 20 min. The extracts obtained in an Eppendorf tube after the cells were scraped and vortexed. The mixture was then centrifuged for 10 min at 10,000 rpm and 4°C, and the supernatant was collected and dried with an evaporator. 300 μl MeOH was used for reconstitution. 15 μL of the reconstituted extract was mixed with 15 μl H2O and […] ACN for the metabolomics analysis of the intracellular material. After centrifugation (10 min, 4°C, 11,800 g), the supernatant was transferred to an LC-MS vial for analysis.
An Acquity UPLC HSS T3 column (1.8 μm 100 × 2.1 mm) using an UltiMate 3000 high performance LC system coupled to Q Exactive MS was used for metabolic profiling ([Shu et al., 2020]). At a flow rate of 0.3 ml/min, mobile phase A (water containing 0.1% acid) and mobile phase B (methanol) were used. A was reduced from 80 % to 70% from 0 to 2 min, A was reduced to 55% from 2 to 5 min, A was reduced to 40% from 5 to 6.5 min, A was reduced to 35% from 6.5 to 12 min, A was last reduced to 0 from 12 to 18 min. The gradient of the mobile phase was as follows: The column oven temperature was set to 40°C, and the autosampler temperature was set to 4°C. The injection volume was 1 μl. MS used electron spray ionization to operate in both positive and negative ionization modes (ESI). To assess the stability and repeatability of the LC-MS-based metabolomics method, quality control (QC) samples were used. Each QC sample was made by combining five samples of the same volume (100 μL) in the order of analysis. To ensure the system method’s stable operation, all combined QC samples for running all QC samples made by every five samples before analysis. After five samples were tested during the analysis run, the combined QC samples of the five samples were taken.
Mass spectrometry data of metabolites in MCF-7 cells was used for metabolomics investigation after co-cultivation with BoA2C (2 μM) for 72 h. The effectiveness of the OPLS-DA model to distinguish between the BoA2C and Control groups was assessed using the success criterion of R^2 ≥ 0.7 and Q^2 ≥ 0.4 ([Martin-Blazquez et al., 2019]). […] VIP-plots were investigated using the OPLS-DA models to examine important factors that led to the differentiation of the metabolome between the BoA2C and Control groups. Variables having a VIP value greater than 1 were deemed significant contenders. Matching retention time and MS fragmentation patterns from the MetaboAnalyst (version 5.0) database verified the presence of distinct metabolites ([Pang et al., 2021]). These metabolites were further categorized based on their characteristics, including amino acids, amines, aliphatic acids and bile acids. All differential metabolites were loaded into MetaboAnalyst (version 5.0) for metabolic analysis to further explain the fundamental mechanisms of BoA2C’s cytotoxic impact on breast carcinoma cells. In accordance with the described guidelines, the Homo sapiens pathway library and Fisher’s exact test were used for route enrichment analysis, while relative-betweeness centrality was used for pathway topology analysis ([Pang et al., 2021]). The impacted metabolic pathways were defined as those with a pathway effect value more than 0.10 and a p value less than 0.05. […] Six of them (Figure 7B, Table 3) were primarily involved: 1) arginine and proline metabolism 2) linoleate metabolism 3) bile acid biosynthesis 4) de novo fatty acid biosynthesis 5) fatty acid activation, and (VI) fatty Acid Metabolism.

[1] = Arginine and Proline Metabolism
[2] = De novo fatty acid biosynthesis

Question: How did the “cytotoxicity on MDCK cell line compared with DDP (cisplatin)” value (MDCK; 72 h) turn out when C=C(C)[C@@H]1CC[C@]2(C(=O)OCCOC(=O)c3cnc(C)cn3)CC[C@]3(C)[C@H](CC[C@@H]4[C@@]5(C)CCC(=O)C(C)(C)[C@@H]5CC[C@]43C)[C@@H]12 [BoA2C, (5-Methylpyrazin-2-acyloxy)-ethyl-3-oxolup-20(29)-en-28-oate] was run?
Answer: lower cytotoxicity on MDCK cell line than cisplatin

Question: What about the pIC50 (MDCK; Canis lupus familiaris, MDCK, 72 h incubation, normal cell line, read-out: Half maximal inhibitory concentration (IC50) values, MDCK) of the same compound?
Answer: < 4.52

Question: What about the “fold change of 4-Acetamidobutanoic acid (M4)” value (MCF-7 cells; [1]) of the same compound?
Answer: 2.37

Question: What about the “fold change of 5′-Methylthioadenosine (M10)” value (MCF-7 cells; [1]) of the same compound?
Answer: 28.55

Question: What about the “fold change of L-4-Hydroxyglutamate semialdehyde (M6)” value (MCF-7 cells; [1]) of the same compound?
Answer: 1.99

Question: What about the “fold change of L-Arginine (M14)” value (MCF-7 cells; [1]) of the same compound?
Answer: 1.90

Question: What about the “fold change of L-Glutamic acid (M18)” value (MCF-7 cells; [1]) of the same compound?
Answer: 1.94

Question: And the “fold change of L-Glutamine (M7)” value (MCF-7 cells; [1])?
Answer: 2.33

Question: And the “fold change of L-Methionine (M12)” value (MCF-7 cells; [1])?
Answer: 3.63

Question: And the “fold change of L-Proline (M5)” value (MCF-7 cells; [1])?
Answer: 2.40

Question: What about the “fold change of 3,7-Dihydroxycoprostanic Acid (M21)” value (MCF-7 cells; Bile acid biosynthesis) of the same compound?
Answer: 1027.39

Question: What about the “fold change of 3a,7a-Dihydroxy-5b-cholestan-26-al (M13)” value (MCF-7 cells; Bile acid biosynthesis) of the same compound?
Answer: 241.46

Question: What about the “fold change of 3 alpha,7 alpha,26-Trihydroxy-5beta-cholestane (M3)” value (MCF-7 cells; Bile acid biosynthesis) of the same compound?
Answer: 362.98

Question: And the “fold change of 7a,12a-Dihydroxy-cholestene-3-one (M16)” value (MCF-7 cells; Bile acid biosynthesis)?
Answer: 17.04

Question: What about the “fold change of 7a-Hydroxy-5b-cholestan-3-one (M25)” value (MCF-7 cells; Bile acid biosynthesis) of the same compound?
Answer: 9.40

Question: What about the “fold change of 7a-Hydroxy-cholestene-3-one (M28)” value (MCF-7 cells; Bile acid biosynthesis) of the same compound?
Answer: 4.47

Question: And the “fold change of 7alpha-Hydroxycholesterol (M17)” value (MCF-7 cells; Bile acid biosynthesis)?
Answer: 92.35

Question: And the “fold change of 27-Deoxy-5b-cyprinol (M24)” value (MCF-7 cells; Bile acid biosynthesis)?
Answer: 2.03

Question: And the “fold change of Cholesterol (M1)” value (MCF-7 cells; Bile acid biosynthesis)?
Answer: 7.69

Question: And the “fold change of Cholic acid (M2)” value (MCF-7 cells; Bile acid biosynthesis)?
Answer: 2.55

Question: What about the “fold change of Lithocholic acid (M27)” value (MCF-7 cells; Bile acid biosynthesis) of the same compound?
Answer: 108.49

Question: What about the “fold change of Palmitic acid (M11)” value (MCF-7 cells; [2]) of the same compound?
Answer: 23.17

Question: And the “fold change of alpha-Linolenic acid (M26)” value (MCF-7 cells; [2])?
Answer: 2.19

Question: And the “fold change of 2-trans-dodecenoyl-CoA (M22)” value (MCF-7 cells; Fatty Acid Metabolism)?
Answer: 1.93

Question: What about the “fold change of 3-Oxotetradecanoyl-CoA (M15)” value (MCF-7 cells; Fatty Acid Metabolism) of the same compound?
Answer: 1.77

Question: What about the “fold change of 13-HODE (M23)” value (MCF-7 cells; Linoleate metabolism) of the same compound?
Answer: 108.54

Question: And the “fold change of 13-Hpode (M9)” value (MCF-7 cells; Linoleate metabolism)?
Answer: 23.04

Question: And the “fold change of Ascorbic Acid (M19)” value (MCF-7 cells; Linoleate metabolism)?
Answer: 2.88

Question: And the “fold change of Linoleic acid (M20)” value (MCF-7 cells; Linoleate metabolism)?
Answer: 159.58

Question: And the “fold change of LysoPC(P-18:0/0:0) (M8)” value (MCF-7 cells; Linoleate metabolism)?
Answer: 3.29
